Test results published in patent US10377741B2, “Substituted heteroaryl aldehyde compounds and methods for their use in increasing tissue oxygenation” (Global Blood Therapeutics, Inc., priority 2011, dated 2019).

Assays:
[1] = molecular target: T1, purified Hemoglobin S (HbS) (Homo sapiens, UniProt P68871+P69905, E7V); assay: Modulation of hemoglobin oxygen affinity: oxygen equilibrium curves (HEMOX) in purified HbS; format: biochemical, human (homozygous sickle cell patients); details: compound at 30 μM; 25 μM purified HbS, 45 min at 37° C.
T1 construct: HbS was purified by a modified procedure; from tissue; host or cells: blood of homozygous sickle cell patients (CHORI); for the polymerization assay purified by the CRO VIRUSYS
Method in brief: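 HbS from homozygous sickle cell patient blood, 25 μM in HEMOX buffer pH 7.4, incubated 45 min at 37° C with compound (30 μM unless noted). Air-saturated then deoxygenated with N2; p50 from Hill fit; delta p50% = (control p50 − treated p50)/control p50 × 100.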

[2] = molecular target: T2, HbS/A (Homo sapiens, UniProt P68871+P69905, E7V); assay: R/T assay (relaxed-to-tense transition under deoxygenated conditions); format: biochemical, human (homozygous sickle cell patients); details: 3 μM HbS/A, % R remaining vs no treatment
T2 construct: A mixture of HbS/A was purified from blood; from tissue; host or cells: blood of homozygous sickle cell patients (CHORI)
Protocol: A relaxed-to-tense transition assay (“R/T assay”) was used to determine the ability of substituted benzaldehyde compounds to maintain the high-oxygen affinity relaxed (R) state of hemoglobin under deoxygenated conditions. This ability can be expressed as a “delta R” value (i.e., the change in the time-period of the R state after hemoglobin is treated with a compound, as compared to the period without treatment with the compound). Delta R is the % R to remaining after the compounds treatment compared with no treatment (e.g. if R % without treatment is 8% while with treatment with a target compound is 48% R at 30 μM, then % R is 40% for that compound.
A mixture of HbS/A was purified from blood obtained from homozygous sickle cell patients though the Hemoglobinopathy Center at Children's Hospital Oakland Research Institute (CHORI) with Institutional Review Board approval. HbS/A (at a final concentration of 3 μM) was incubated for 1 hr at 37° C. in presence or absence of compounds in […] potassium phosphate buffer, pH=7.4 and 30 μM 2, 3 diphosphoglycerate (DPG) in 96 well plates in a final volume of 160 μl. Compounds were added at different concentrations (3 μM to 100 μM final concentrations). Plates were covered with a Mylar film. After incubation was completed the Mylar cover was removed and the plates were placed in a Spectrostar Nano plate reader previously heated at 37° C. Five minutes later, N2 (flow rate=20 L/min) was flowed through the spectrophotometer. Spectroscopic measurements (300 nm to 700 nm) were taken every 5 min for 2 hours. Data analysis was performed by using linear regression from the data retrieved for all wavelengths.
Table 4 below lists the delta R values where + indicates a delta R of between 0 and 30, ++ indicates a delta R of between 30 and 50, and +++ indicates a delta R of 50 or greater. Unless noted otherwise, the compounds in Table 2 were tested at 30 μM.

[3] = test system: whole blood; assay: Whole blood assay: oxygen equilibrium curves of whole blood; format: cell-based, human (homozygous sickle cell patients); details: compound at 1000 μM; hematocrit 20%, 1 hour at 37° C.
Protocol: Oxygen Equilibrium Curves (OEC) of whole blood before and after treatment with different concentrations of substituted benzaldehyde compounds were performed as follows using a HEMOX analyzer (TCS Scientific, New Hope, Pa.). Blood samples from homozygous sickle cell patients were obtained though the Hemoglobinopathy Center at Children's Hospital Oakland Research Institute (CHORI) with Institutional Review Board approval. The hematocrit was adjusted to 20% using autologous plasma and the blood samples were incubated for 1 hour at 37° C. in absence or presence of compounds. 100 μl of these samples were added to 5 mL of Hemox buffer (30 mM TES, 130 mM NaCl, 5 mM KCl, pH=7.4) at 37° C. and then transferred to the Hemox sample chamber. The samples were saturated with oxygen by flushing with compressed air for 10 minutes. The samples were then flushed with pure nitrogen and the respective absorbances of oxy- and deoxy-Hb are recorded as a function of the solution pO2. The oxygen equilibrium data were then fitted to the Hill Model to obtain values for p50. The deoxygenation curves for both whole blood alone (control) and whole blood in the presence of the compound were collected with the TCS software.
Table 5 below lists the delta p50% values where + indicates a delta p50% of between 0 and 29, ++ indicates a delta p50% of between 30 and 50, and +++ indicates a delta p50% of 50 or greater. Unless noted otherwise, the compounds in Table 2 were tested at 1000 μM.

SMILES | delta p50% [1] | delta R ([2]; compound at 9 μM) | delta R ([2]; compound at 30 μM) | delta p50% Values for Whole Blood Assay [3]
COc1cc(C=O)c(OCc2cccnc2-c2ccnn2C)cn1 [Compound 129, 2-methoxy-5-((2-(1-methyl-1H-pyrazol-5-yl)pyridin-3-yl)methoxy)isonicotinaldehyde] | ++ (a delta p50% of between 30 and 50) | ++ (a delta R of between 30 and 50) | – | ++ (a delta p50% of between 30 and 50)
COc1cc(C=O)c(OCc2cccnc2-c2ccn[nH]2)cn1 [Compound 65, 5-((2-(1H-pyrazol-5-yl)pyridin-3-yl)methoxy)-2-methoxyisonicotinaldehyde] | ++ (a delta p50% of between 30 and 50) | + (a delta R of between 0 and 30) | – | + (a delta p50% of between 0 and 29)
COc1cc(C=O)c(OCc2nccc3ccccc23)cn1 [Compound 44, 5-(isoquinolin-1-ylmethoxy)-2-methoxyisonicotinaldehyde] | +++ (a delta p50% of 50 or greater) | – | – | + (a delta p50% of between 0 and 29)
COc1cc(C=O)c(OCc2cccc3ocnc23)cn1 [Compound 103, 5-(benzo[d]oxazol-4-ylmethoxy)-2-methoxyisonicotinaldehyde] | ++ (a delta p50% of between 30 and 50) | ++ (a delta R of between 30 and 50) | – | + (a delta p50% of between 0 and 29)
COc1cc(C=O)c(OCc2cccc3ncccc23)cn1 [Compound 120, 2-methoxy-5-(quinolin-5-ylmethoxy)isonicotinaldehyde] | ++ (a delta p50% of between 30 and 50) | ++ (a delta R of between 30 and 50) | – | + (a delta p50% of between 0 and 29)
Cc1ccc(OCc2ccnc3cccnc23)c(C=O)n1 [Compound 106, 3-((1,5-naphthyridin-4-yl)methoxy)-6-methylpicolinaldehyde] | ++ (a delta p50% of between 30 and 50) | – | – | + (a delta p50% of between 0 and 29)
Cc1ccc(OCc2ccc3c(cnn3C)c2)c(C=O)n1 [Compound 108, 6-methyl-3-((1-methyl-1H-indazol-5-yl)methoxy)picolinaldehyde] | ++ (a delta p50% of between 30 and 50) | +++ (a delta R of 50 or greater) | – | + (a delta p50% of between 0 and 29)
COCCOc1cc(C=O)c(OCc2cccnc2-c2ccnn2CCC(F)(F)F)cn1 [Compound 209, 2-(2-methoxyethoxy)-5-((2-(1-(3,3,3-trifluoropropyl)-1H-pyrazol-5-yl)pyridin-3-yl)methoxy)isonicotinaldehyde] | – | – | – | + (a delta p50% of between 0 and 29)
COc1cc(C=O)c(OCc2cncc(-c3ccnn3C)c2)cn1 [Compound 74, 2-methoxy-5-((5-(1-methyl-1H-pyrazol-5-yl)pyridin-3-yl)methoxy)isonicotinaldehyde] | ++ (a delta p50% of between 30 and 50) | – | – | ++ (a delta p50% of between 30 and 50)

Further lines, with some results ahead:

delta p50% [1] | delta R ([2]; compound at 9 μM) | delta R ([2]; compound at 30 μM) | SMILES | delta p50% Values for Whole Blood Assay [3]
+++ (a delta p50% of 50 or greater) | – | ++ (a delta R of between 30 and 50) | COc1cc(C=O)c(OCc2cccnc2-c2[nH]ncc2C)cn1 [Compound 132, 2-methoxy-5-((2-(4-methyl-1H-pyrazol-5-yl)pyridin-3-yl)methoxy)isonicotinaldehyde] | ++ (a delta p50% of between 30 and 50)
++ (a delta p50% of between 30 and 50) | + (a delta R of between 0 and 30) | – | COc1cc(C=O)c(OCc2cccnc2-c2nn[nH]n2)cn1 [Compound 131, 5-((2-(2H-tetrazol-5-yl)pyridin-3-yl)methoxy)-2-methoxyisonicotinaldehyde] | + (a delta p50% of between 0 and 29)
++ (a delta p50% of between 30 and 50) | + (a delta R of between 0 and 30) | – | COCCOc1cc(C=O)c(OCc2cccn3ccnc23)cn1 [Compound 179, 5-(imidazo[1,2-a]pyridin-8-ylmethoxy)-2-(2-methoxyethoxy) isonicotinaldehyde] | ++ (a delta p50% of between 30 and 50)
++ (a delta p50% of between 30 and 50) | + (a delta R of between 0 and 30) | – | Cc1cn[nH]c1-c1ncccc1COc1c[nH]c(=O)cc1C=O [Compound 194, 5-((2-(4-methyl-1H-pyrazol-5-yl)pyridin-3-yl)methoxy)-2-oxo-1,2-dihydropyridine-4-carbaldehyde] | + (a delta p50% of between 0 and 29)
++ (a delta p50% of between 30 and 50) | + (a delta R of between 0 and 30) | – | COc1cc(C=O)c(OCc2cccn3cncc23)cn1 [Compound 140, 5-(imidazo[1,5-a]pyridin-8-ylmethoxy)-2-methoxyisonicotinaldehyde] | + (a delta p50% of between 0 and 29)
++ (a delta p50% of between 30 and 50) | + (a delta R of between 0 and 30) | – | COc1cc(C=O)c(OCc2cccnc2-c2ccn(CCC(=O)O)n2)cn1 [Compound 201, 3-(3-(3-((4-formyl-6-methoxypyridin-3-yloxy)methyl)pyridin-2-yl)-1H-pyrazol-1-yl)propanoic acid] | + (a delta p50% of between 0 and 29)
++ (a delta p50% of between 30 and 50) | + (a delta R of between 0 and 30) | – | COc1cc(C=O)c(OCc2cccnc2-c2cnn(C)c2C)cn1 [Compound 143, 5-((2-(1,5-dimethyl-1H-pyrazol-4-yl)pyridin-3-yl)methoxy)-2-methoxyisonicotinaldehyde] | + (a delta p50% of between 0 and 29)
+++ (a delta p50% of 50 or greater) | – | ++ (a delta R of between 30 and 50) | COc1cc(C=O)c(OCc2cccnc2-c2ccnn2C2CCCCC2)cn1 [Compound 196, 5-((2-(1-cyclohexyl-1H-pyrazol-5-yl)pyridin-3-yl)methoxy)-2-methoxyisonicotinaldehyde] | ++ (a delta p50% of between 30 and 50)
++ (a delta p50% of between 30 and 50) | – | ++ (a delta R of between 30 and 50) | COCCOc1cc(C=O)c(OCc2cccnc2-c2ccnn2C)cn1 [Compound 184, 2-(2-methoxyethoxy)-5-((2-(1-methyl-1H-pyrazol-5-yl)pyridin-3-yl)methoxy)isonicotinaldehyde] | +++ (a delta p50% of 50 or greater)
